Results from ChEMBL document CHEMBL3822441, “Azadirachta indica triterpenoids promote osteoblast differentiation and mineralization in vitro and in vivo” (2016).
Activity calls are given as the source filed them. No cut-off for these calls is given here.

Experiments:
Rattus norvegicus [1] = assay: Osteogenic activity in rat assessed as upregulation of COL-1 mRNA expression in calvarial osteoblasts at 5 mg/kg/day, sc dosed for 3 days by RT-PCR analysis relative to control; format: functional
Rattus norvegicus [2] = assay: Induction of bone formation in rat assessed as increase in bone-formation rate in calvarial osteoblasts at 1 mg/kg/day, sc dosed for 3 days by dynamic histomorphometric analysis relative to control; format: functional
Rattus norvegicus [3] = assay: Induction of bone formation in rat assessed as increase in mineral appositional rate in calvarial osteoblasts at 5 mg/kg/day, sc dosed for 3 days by dynamic histomorphometric analysis relative to control; format: functional
Rattus norvegicus [4] = assay: Osteogenic activity in rat assessed as upregulation of RunX-2 mRNA expression in calvarial osteoblasts at 5 mg/kg/day, sc dosed for 3 days by RT-PCR analysis relative to control; format: functional
[5] = Upregulation of OCN mRNA expression in rat primary calvarial osteoblasts at 100 pM by RT-PCR analysis relative to control; format: functional, cell-based; conditions: Calvarial osteoblast
Calvarial osteoblast [6] = assay: Induction of cell proliferation in rat primary calvarial osteoblasts at 0.1 to 10 nM after 48 hrs by BrDU-staining based assay relative to control; format: functional
Rattus norvegicus [7] = assay: Osteogenic activity in rat assessed as upregulation of RunX-2 mRNA expression in calvarial osteoblasts at 10 mg/kg/day, sc dosed for 3 days by RT-PCR analysis relative to control; format: functional
Rattus norvegicus [8] = assay: Induction of bone formation in rat assessed as increase in bone-formation rate in calvarial osteoblasts at 10 mg/kg/day, sc dosed for 3 days by dynamic histomorphometric analysis relative to control; format: functional
[9] = Upregulation of RunX-2 mRNA expression in rat primary calvarial osteoblasts at 100 pM by RT-PCR analysis relative to control; format: functional, cell-based; conditions: Calvarial osteoblast
Rattus norvegicus [10] = assay: Induction of bone formation in rat assessed as increase in bone-formation rate in calvarial osteoblasts at 5 mg/kg/day, sc dosed for 3 days by dynamic histomorphometric analysis relative to control; format: functional
Rattus norvegicus [11] = assay: Osteogenic activity in rat assessed as upregulation of RunX-2 mRNA expression in calvarial osteoblasts at 1 mg/kg/day, sc dosed for 3 days by RT-PCR analysis relative to control; format: functional
Rattus norvegicus [12] = assay: Induction of bone formation in rat assessed as increase in mineral appositional rate in calvarial osteoblasts at 1 mg/kg/day, sc dosed for 3 days by dynamic histomorphometric analysis relative to control; format: functional
Rattus norvegicus [13] = assay: Osteogenic activity in rat assessed as upregulation of COL-1 mRNA expression in calvarial osteoblasts at 1 mg/kg/day, sc dosed for 3 days by RT-PCR analysis relative to control; format: functional
Rattus norvegicus [14] = assay: Osteogenic activity in rat assessed as upregulation of ALP mRNA expression in calvarial osteoblasts at 5 mg/kg/day, sc dosed for 3 days by RT-PCR analysis relative to control; format: functional
Calvarial osteoblast [15] = assay: Osteogenic activity in rat primary calvarial osteoblasts at 100 pM after 48 hrs by ALP-based colorimetric assay; format: functional, cell-based
Rattus norvegicus [16] = assay: Osteogenic activity in rat assessed as upregulation of RunX-2 mRNA expression in calvarial osteoblasts at 0.5 mg/kg/day, sc dosed for 3 days by RT-PCR analysis relative to control; format: functional
Calvarial osteoblast [17] = assay: Induction of mineralization in rat primary calvarial osteoblasts assessed as mineralized nodule formation at 0.001 to 10 nM after 12 days by alizarin red S-staining based assay relative to control; format: functional, cell-based
[18] = Upregulation of ALP mRNA expression in rat primary calvarial osteoblasts at 100 pM by RT-PCR analysis relative to control; format: functional, cell-based; conditions: Calvarial osteoblast
Calvarial osteoblast [19] = assay: Osteogenic activity in rat primary calvarial osteoblasts at 10 nM after 48 hrs by ALP-based colorimetric assay; format: functional, cell-based
Calvarial osteoblast [20] = assay: Osteogenic activity in rat primary calvarial osteoblasts at 1 pM after 48 hrs by ALP-based colorimetric assay; format: functional, cell-based
Calvarial osteoblast [21] = assay: Induction of mineralization in rat primary calvarial osteoblasts assessed as mineralized nodule formation at 10 to 1000 nM after 12 days by alizarin red S-staining based assay relative to control; format: functional, cell-based
[22] = Upregulation of RunX-2 mRNA expression in rat primary calvarial osteoblasts at 10 nM by RT-PCR analysis relative to control; format: functional, cell-based; conditions: Calvarial osteoblast
[23] = Upregulation of OCN mRNA expression in rat primary calvarial osteoblasts at 10 nM by RT-PCR analysis relative to control; format: functional, cell-based; conditions: Calvarial osteoblast
[24] = Upregulation of ALP mRNA expression in rat primary calvarial osteoblasts at 10 nM […] by RT-PCR analysis relative to control; format: functional, cell-based; conditions: Calvarial osteoblast
Calvarial osteoblast [25] = assay: Induction of cell proliferation in rat primary calvarial osteoblasts at 10 nM nM after 48 hrs by BrDU-staining based assay relative to control; format: functional

SMILES: C/C=C(\C)C(=O)O[C@H]1C[C@@H](OC(C)=O)[C@@]2(C(=O)OC)CO[C@H]3[C@@H](O)[C@@](C)([C@@]45O[C@@]4(C)[C@H]4C[C@@H]5O[C@@H]5OC=C[C@@]54O)[C@H]4[C@]1(CO[C@]4(O)C(=O)OC)[C@@H]32
- fold change (FC) (Rattus norvegicus [1]): 3.5
- fold change (FC) (Rattus norvegicus [2]): 4
- fold change (FC) (Rattus norvegicus [3]): 4
- fold change (FC) (Rattus norvegicus [4]): 7.5
- fold change (FC) [5]: 3
- Activity (Calvarial osteoblast [6]): Active
- fold change (FC) (Rattus norvegicus [7]): 3
- fold change (FC) (Rattus norvegicus [8]): 3.2
- fold change (FC) [9]: 3.5
- fold change (FC) (Rattus norvegicus [10]): 5
- fold change (FC) (Rattus norvegicus [11]): 7
- fold change (FC) (Rattus norvegicus [12]): 3.4
- fold change (FC) (Rattus norvegicus [13]): 7
- fold change (FC) (Rattus norvegicus [14]): 2
- Activity (Calvarial osteoblast [15]): Active
- fold change (FC) (Rattus norvegicus [16]): 5
- Activity (Calvarial osteoblast [17]): Active
- fold change (FC) [18]: 4.5

SMILES: CC(=O)O[C@@H]1C[C@H]2C(C)(C)C(=O)C=C[C@]2(C)[C@H]2CC[C@@]3(C)[C@H](c4ccoc4)C(=O)[C@H]4O[C@]43[C@@]21C
- Activity (Calvarial osteoblast [19]): Active

SMILES: C/C=C(\C)C(=O)O[C@H]1C[C@@H](OC(C)=O)[C@@]2(C)CO[C@H]3[C@H]4O[C@@H]5C[C@@H](c6ccoc6)C(C)=C5[C@@]4(C)[C@H](CC(=O)OC)[C@]1(C)[C@@H]32
- Activity (Calvarial osteoblast [20]): Active

SMILES: CC(=O)O[C@@H]1C[C@H]2C(C)(C)C(=O)C=C[C@]2(C)[C@H]2CC[C@]3(C)C(=CC[C@H]3c3ccoc3)[C@@]21C
- Activity (Calvarial osteoblast [21]): Active
- fold change (FC) [5]: 2.3
- Activity (Calvarial osteoblast [6]): Active
- fold change (FC) [9]: 2.7
- Activity (Calvarial osteoblast [15]): Active
- Activity [18]: inactive

SMILES: C/C=C(\C)C(=O)O[C@@H]1C[C@H](O)[C@]23CO[C@H](C(=O)OC)[C@H]2[C@](C)([C@]24O[C@@]2(C)[C@H]2C[C@@H]4O[C@@H]4OC=C[C@@]42O)[C@H](O)[C@@H]2OC[C@@]1(C(=O)OC)[C@H]23
- fold change (FC) [22]: 2.5
- fold change (FC) [23]: 2.5
- Activity (Calvarial osteoblast [6]): Active
- Activity (Calvarial osteoblast [15]): Active
- fold change (FC) [24]: 2.8
- Activity (Calvarial osteoblast [17]): Active
- fold change (FC) [18]: 2.8

SMILES: C[C@]12CC[C@@H]3c4ccc(O)cc4CC[C@H]3[C@@H]1CC[C@@H]2O
- Activity (Calvarial osteoblast [25]): Active
